Measured values: article PMC3462657 (Cancer letters, 2012)
“Also recorded” adds a separate entry of the source.

Key:
[1] = Tissue curcumin/curcuminoids levels by UPLC-fluorescence; format: in vivo, female A/J mice; conditions: for concentration at 21 days: female, A/J
[2] = In vitro release from polymeric implants; format: in vitro ADME; conditions: for cumulative release over 3 weeks: 37°C
[3] = test system: DBP-induced lung DNA adducts; experiment: Inhibition of DBP-DNA adducts in lung tissue, 32P-postlabeling; format: in vivo, female A/J mice; conditions: coated implants, DBP-treated mice, 3 weeks
[4] = test system: human lung cancer A549 xenograft; experiment: Effect on tumor xenograft
[5] = design: species or system mice; conditions: mouse, in vivo
[6] = coated implants, PBS + 10% bovine serum
[7] = implants of the individual curcuminoids, 21 days

## COc1cc(/C=C/C(O)=C/C(=O)/C=C/c2ccc(O)cc2)ccc1O [curcumin II, demethoxycurcumin]
[1]; mouse, in vivo, level in brain
  concentration at 21 days: 1 ng/g
[1]; mouse, in vivo, level in lung
  concentration at 21 days: 1.4 ± 0.4 ng/g
[2]; [6]
  cumulative release over 3 weeks: 41.8%

## O=C(/C=C/c1ccc(O)cc1)CC(=O)/C=C/c1ccc(O)cc1 [curcumin III, bisdemethoxycurcumin]
[1]; mouse, in vivo, level in brain
  concentration at 21 days: 6.4 ng/g
[1]; mouse, in vivo, level in liver
  concentration at 21 days: 5 to 6 ng/g
[1]; mouse, in vivo, level in lung
  concentration at 21 days: 49.7 ± 1.3 ng/g
[2]; [6]
  cumulative release over 3 weeks: 51.4%

## COc1cc(/C=C/C(=O)CC(=O)/C=C/c2ccc(O)c(OC)c2)ccc1O [curcumin I]
[1]; implants of the individual curcuminoids, 10% load, 21 days
  level in lung: 6.5 ± 1.6 ng/g lung
[1]; [7]
  level in brain: 1.4 ng/g tissue
  level in liver: 5–6 ng/g tissue

## Cc1c(-c2cnccn2)ssc1=S [oltipraz, reference compound]
[2]; coated implants agitated in PBS alone at 37°C
  release in PBS alone: essentially no release
[2]; coated implants, PBS + 10% bovine serum, after 21 days
  cumulative release: about 12%
[2]; coated implants, PBS + 10% bovine serum, after 60 days
  cumulative release: ~27%
[2]; coated implants, PBS + 10% bovine serum, over 60 days / eight weeks
  in vitro release pattern: almost zero-order kinetics
[3]
  effect on DBP-DNA adduct levels in lung: reduction was statistically significant
  lung DNA adducts: 28±7 adducts/10^9 nucleotides

## CC1=C(CO)C(=O)O[C@@H]([C@@H](C)[C@H]2CC[C@H]3[C@@H]4C[C@H]5O[C@]56[C@@H](O)C=CC(=O)[C@]6(C)[C@H]4CC[C@]23C)C1 [withaferin A]
[4]; calculated based on the residual amount in the implants
  total dose administered via the two implants: 2.69 mg
[4]; given via the implants
  effect on A549 xenograft: significantly inhibited
[4]; intraperitoneally 8 mg/kg, alternate days
  inhibition of the tumor: 53%
[4]; intraperitoneally, lower dose 4 mg/kg (same total dose as implants), 4 mg/kg
  effect on tumor: ineffective; also recorded: no reduction
[4]; via implants vs sham
  body weight at the end of the 8-week study: essentially the same body weight
[4]; via implants, two 1.5-cm, 5% load
  reduction in the growth of the tumor (tumor volume): 51%
[3]
  effect on DBP-DNA adduct levels in lung: reduction in the DNA adduct levels
[3]; listed as Withaferin A
  effect on DBP-DNA adduct levels in lung: diminished DNA adducts, but it was insignificant

## curcumin
[1]; mouse, in vivo
  composition of the three curcuminoids in lung tissue: essentially the same compositions
  ratio of the three curcuminoids in the liver: 74:18:8
[5]
  biochemical parameters of kidney function: No significant differences
  effect on body weight: no significant effect
  hematological parameters (white blood cells, red blood cells, hemoglobin): No significant differences
  liver enzymes: No significant differences
  neutrophils, lymphocytes, monocytes, eosinophils, and basophils: no statistical difference
